# Values of other authors as cited in patent US20120009644A1, “Tissue Implants for Implantation and Methods for Preparing the Same” (CRYOLIFE, INC., priority 2010, published 2012).
# Tested on: sensitive bacteria
# Conditions: literature review
smiles,measurement,value
NCC[C@H](O)C(=O)N[C@@H]1C[C@H](N)[C@@H](O[C@H]2O[C@H](CN)[C@@H](O)[C@H](O)[C@H]2O)[C@H](O)[C@H]1O[C@H]1O[C@H](CO)[C@@H](O)[C@H](N)[C@H]1O [amikacin],minimum inhibitory concentration against sensitive bacteria (MIC) range,0.125 to 32 µg/mL
